The subject of one experiment is mouse mast MC/9 cells. The experiment is described as follows: Inhibition of IL10-dependent growth of MC/9 cells, MTT assay, 48 hours. The format is cell-based.
The subject of experiment [1] is MDA-MB-231 breast cancer cells. Kind of experiment: Inhibition of IFN-gamma-dependent growth of MDA-MB-231 cells, MTT assay, 48 hours. The format is cell-based. Conditions: 48 h.
Description: (§1) Cells were exposed to compounds for 48 hours and cell number was determined with the help of MTT assay.
(§2) Cells were exposed to IL10-HF-1 for 48 hours and cell number was determined with the help of MTT assay.
(§3) Peptides designed to mimic conserved regions of the receptor sequences were tested for the ability to inhibit IL10 and IFN-gamma signaling. Inhibition of IL10 signaling was tested in a mouse mast cell line MC/9. […] Abrogation of IFN-gamma signaling or STAT1 activation causes cell death in this cell line.
The target of experiment [2] is T1, recombinant human IFN-gamma (Homo sapiens, UniProt P01579).
T1 sequence (P01579 24-161 limits assumed): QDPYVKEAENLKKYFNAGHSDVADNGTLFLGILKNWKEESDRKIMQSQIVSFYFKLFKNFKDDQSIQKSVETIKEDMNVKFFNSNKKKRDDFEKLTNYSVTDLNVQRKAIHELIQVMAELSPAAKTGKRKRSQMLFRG
The experiment is described as follows: Microscale thermophoresis binding to IFN-gamma. Conditions: result in words. The text has this:
To evaluate whether synthetic helix F analogs could interact with the corresponding cytokine, fluorescent derivatives of helix F were synthesized. The helix F analogs are described below.

[3] abbreviates: Table 4, compounds mimicking conserved regions of IL10R1, cell line not given, read-out: GI50.

Read-outs that look alike come from different tables or passages of the source. Positions of bridges follow the written chain, without caps; N, C: chain ends. Non-standard residues stand in square brackets, D forms with d. Residues, ends and D or L forms follow the SMILES beside them. Chains are numbered I, II in the order given. ξ: configuration not given here. *: point of attachment. C(fluorescein) = cysteine carrying a fluorescein label; Palmitoyl = CCCCCCCCCCCCCCCC(=O)*; PEG4 = NCCOCCOCCOCCOCCC(=O)O; Nle = CCCC[C@H](N)C(=O)O; Aib = CC(C)(N)C(=O)O; ξK = NCCCCC(N)C(=O)O

Description for mouse mast MC/9 cells: as §1, §2, §3

As to `CCCC[C@H](NC(=O)[C@H](Cc1ccc(O)cc1)NC(=O)[C@H](C)NC(=O)[C@H](CCC(=O)O)NC(=O)[C@@H](NC(=O)[C@H](Cc1ccc(O)cc1)NC(=O)[C@H](CC(N)=O)NC(=O)[C@@H](NC(=O)[C@H](Cc1ccccc1)NC(=O)[C@@H](NC(=O)[C@H](CC(=O)O)NC(=O)[C@H](Cc1ccccc1)NC(=O)[C@H](CCC(=O)O)NC(=O)[C@H](CO)NC(=O)C(C)(C)NC(C)=O)[C@@H](C)CC)[C@@H](C)CC)[C@@H](C)CC)C(=O)NCCOCCOCCOCCOCCC(=O)NCCCCC(NC(=O)CCOCCOCCOCCOCCNC(=O)[C@H](CCCC)NC(=O)[C@H](Cc1ccc(O)cc1)NC(=O)[C@H](C)NC(=O)[C@H](CCC(=O)O)NC(=O)[C@@H](NC(=O)[C@H](Cc1ccc(O)cc1)NC(=O)[C@H](CC(N)=O)NC(=O)[C@@H](NC(=O)[C@H](Cc1ccccc1)NC(=O)[C@@H](NC(=O)[C@H](CC(=O)O)NC(=O)[C@H](Cc1ccccc1)NC(=O)[C@H](CCC(=O)O)NC(=O)[C@H](CO)NC(=O)C(C)(C)NC(C)=O)[C@@H](C)CC)[C@@H](C)CC)[C@@H](C)CC)C(N)=O` (stereo partly shown) [IL10-HF-1] (I: Ac-[Aib]SEFDIFINYIEAY[Nle][PEG4][ξK]-NH2 / II: Ac-[Aib]SEFDIFINYIEAY[Nle][PEG4]; amide I:17-II:C), the GI50 in the experiment on mouse mast MC/9 cells (FIG. 2, 48 hours exposure, MTT assay, read-out: GI50, IL10 dependent growth of MC/9) worked out at 50 nM. As to `CCCCCCCCCCCCCCCC(=O)N[C@@H](CC(C)C)C(=O)N[C@@H](Cc1ccc(O)cc1)C(=O)N[C@H](C(=O)N[C@@H](CCCNC(=N)N)C(=O)N[C@@H](CCCNC(=N)N)C(=O)N[C@@H](CCCNC(=N)N)C(=O)N[C@@H](CCCCN)C(=O)N[C@@H](CCCCN)C(=O)N[C@@H](CC(C)C)C(=O)N1CCC[C@H]1C(=O)N[C@@H](CO)C(=O)N[C@H](C(=O)N[C@@H](CC(C)C)C(=O)N[C@@H](CC(C)C)C(=O)N[C@@H](Cc1ccccc1)C(=O)N[C@@H](CCCCN)C(=O)N[C@@H](CCCCN)C(N)=O)C(C)C)C(C)C` [IL10R1-1, Pal-LYVRRRKKLPSVLLFKK-NH2] (Palmitoyl-LYVRRRKKLPSVLLFKK-NH2), the GI50 in experiment [1] was found to be 25 nM; with mouse mast MC/9 cells (48 h) it was 1000 nM. On to `CCCCCCCCCCCCCCCC(=O)NCCCC[C@H](N)C(=O)N[C@@H](CCCCN)C(=O)N[C@@H](CC(C)C)C(=O)N1CCC[C@H]1C(=O)N[C@@H](CO)C(=O)N[C@H](C(=O)N[C@@H](CC(C)C)C(=O)N[C@@H](CC(C)C)C(=O)N[C@@H](Cc1ccccc1)C(=O)N[C@@H](CCCCN)C(=O)N[C@@H](CCCCN)C(=O)N1CCC[C@H]1C(=O)N[C@@H](CO)C(N)=O)C(C)C` [IL10R1-3, ε-Pal-KKLPSVLLFKKPS-NH2] (H-K(Palmitoyl)KLPSVLLFKKPS-NH2; N-terminus assumed), for which the GI50 was 2500 nM in experiment [1] and 50 nM in the experiment with mouse mast MC/9 cells (48 h). With `CCCCCCCCCCCCCCCC(=O)N[C@@H](CC(C)C)C(=O)N[C@@H](Cc1c[nH]cn1)C(=O)NCC(=O)N[C@@H](CO)C(=O)N[C@H](C(=O)N[C@@H](CC(=O)O)C(=O)N[C@@H](CO)C(=O)NCC(=O)N[C@@H](Cc1ccccc1)C(=O)NCC(=O)N[C@@H](CO)C(=O)N[C@H](C(=O)N[C@@H](CCCCN)C(=O)N1CCC[C@H]1C(=O)N[C@@H](CO)C(=O)N[C@@H](CC(C)C)C(=O)N[C@@H](CCC(N)=O)C(=O)N[C@H](C(=O)O)[C@@H](C)O)[C@@H](C)O)[C@@H](C)O` [IL10R1-5, Pal-LHGSTDSGFGSTKPSLQT] (Palmitoyl-LHGSTDSGFGSTKPSLQT-OH; N-terminus and C-terminus assumed), in the experiment on mouse mast MC/9 cells (48 h), the GI50 came to 1000 nM. In turn, `CCCCCCCCCCCCCCCC(=O)NCCCC[C@H](N)C(=O)N[C@@H](CC(C)C)C(=O)N[C@H](C(=O)N[C@H](C(=O)N[C@@H](CC(C)C)C(=O)N1CCC[C@H]1C(=O)N[C@@H](CC(C)C)C(=O)N[C@H](C(=O)N[C@@H](CO)C(=O)N[C@@H](CO)C(=O)N[C@@H](CC(C)C)C(=O)N[C@@H](CCC(N)=O)C(=O)N[C@@H](CO)C(=O)N[C@@H](CO)C(=O)N[C@@H](CCC(=O)O)C(N)=O)[C@@H](C)CC)[C@@H](C)O)C(C)C` [IL10R1-7, ε-Pal-KLVTLPLISSLQSSE-NH2] (H-K(Palmitoyl)LVTLPLISSLQSSE-NH2; N-terminus assumed) registered a GI50 in the experiment with mouse mast MC/9 cells (48 h) of 5000 nM. For the molecule `CCCCCCCCCCCCCCCC(=O)NCCCC[C@H](N)C(=O)N1CCC[C@H]1C(=O)N1CCC[C@H]1C(=O)N[C@@H](C)C(=O)N[C@@H](CC(C)C)C(=O)N[C@@H](C)C(=O)N[C@@H](CCCCN)C(=O)NCC(=O)N[C@@H](Cc1ccc(O)cc1)C(=O)N[C@@H](CC(C)C)C(=O)N[C@@H](CCCCN)C(=O)N[C@@H](CCC(N)=O)C(N)=O` [IL10R1-8, ε-Pal-KPPALAKGYLKQ-NH2] (H-K(Palmitoyl)PPALAKGYLKQ-NH2; N-terminus assumed), in the experiment on mouse mast MC/9 cells (48 h), the GI50 came out at 5000 nM.

With `CCCCCCCCCCCCCCCC(=O)NCCCC[C@@H](NC(=O)[C@@H](CC(C)C)NC(=O)[C@@H](Cc1c[nH]cn1)NC(=O)CNC(=O)[C@@H](CO)NC(=O)[C@H](NC(=O)[C@@H](CC(=O)O)NC(=O)[C@@H](CO)NC(=O)CNC(=O)[C@@H](Cc1ccccc1)NC(=O)CNC(=O)[C@@H](CO)NC(=O)[C@H](NC(=O)[C@@H](CCCCN)NC(=O)[C@H]1CCCN1C(=O)[C@@H](CO)NC(=O)[C@@H](CC(C)C)NC(=O)[C@@H](CCC(N)=O)NC(=O)[C@H](NC(=O)[C@@H](CCC(=O)O)NC(=O)[C@@H](CCC(=O)O)NC(C)=O)[C@H](C)O)[C@H](C)O)[C@H](C)O)C(N)=O` [IL10R1-14] (Ac-[dE][dE][dT][dQ][dL][dS][dP][dK][dT][dS]G[dF]G[dS][dD][dT][dS]G[dH][dL][dK](Palmitoyl)-NH2; C-terminus assumed), the GI50 in the experiment on mouse mast MC/9 cells (setting [3]) is 1000 nM. On the same count and under the same terms, to `CCCCCCCCCCCCCCCC(=O)NCCCC[C@@H](NC(=O)[C@@H](CC(C)C)NC(=O)[C@@H](Cc1c[nH]cn1)NC(=O)CNC(=O)[C@@H](CO)NC(=O)[C@H](NC(=O)[C@@H](CC(=O)O)NC(=O)[C@@H](CO)NC(=O)CNC(=O)[C@@H](Cc1ccccc1)NC(=O)CNC(=O)[C@@H](CO)NC(=O)[C@H](NC(=O)[C@@H](CCCCN)NC(=O)[C@H]1CCCN1C(=O)[C@@H](CO)NC(=O)[C@@H](CC(C)C)NC(=O)[C@@H](CCC(N)=O)NC(=O)[C@H](NC(=O)[C@@H](CCC(=O)O)NC(C)=O)[C@H](C)O)[C@H](C)O)[C@H](C)O)C(N)=O` [IL10R1-15] (Ac-[dE][dT][dQ][dL][dS][dP][dK][dT][dS]G[dF]G[dS][dD][dT][dS]G[dH][dL][dK](Palmitoyl)-NH2; C-terminus assumed) belongs above 5000 nM. Still for that read-out and setting: under `CCCCCCCCCCCCCCCC(=O)NCCCC[C@@H](N)C(=O)N[C@@H](C(=O)N[C@H](CCC(N)=O)C(=O)N[C@H](CC(C)C)C(=O)N[C@H](CO)C(=O)N1CCC[C@@H]1C(=O)N[C@H](CCCCN)C(=O)N[C@@H](C(=O)N[C@H](CO)C(=O)NCC(=O)N[C@H](Cc1ccccc1)C(=O)NCC(=O)N[C@H](CO)C(=O)N[C@H](CC(=O)O)C(=O)N[C@@H](C(=O)N[C@H](CO)C(=O)NCC(=O)N[C@H](Cc1c[nH]cn1)C(=O)N[C@H](CC(C)C)C(N)=O)[C@H](C)O)[C@H](C)O)[C@H](C)O` [IL10R1-17, ε-Pal-KTQLSPKTSGFGSDTSGHL-NH2] (H-[dK](Palmitoyl)[dT][dQ][dL][dS][dP][dK][dT][dS]G[dF]G[dS][dD][dT][dS]G[dH][dL]-NH2; N-terminus assumed) stands above 5000 nM. In turn, `CCCCCCCCCCCCCCCC(=O)NCCCC[C@H](N)C(=O)N[C@@H](CC(C)C)C(=O)N[C@H](C(=O)N[C@H](C(=O)N[C@@H](CC(C)C)C(=O)N1CCC[C@H]1C(=O)N[C@@H](CC(C)C)C(=O)N[C@H](C(=O)N[C@@H](CO)C(=O)N[C@@H](CO)C(=O)N[C@@H](CC(C)C)C(=O)N[C@@H](CCC(N)=O)C(N)=O)[C@@H](C)CC)[C@@H](C)O)C(C)C` [IL10R1-27, ε-Pal-KLVTLPLISSLQ-NH2] (H-K(Palmitoyl)LVTLPLISSLQ-NH2; N-terminus assumed) returned a GI50 in the experiment with mouse mast MC/9 cells (48 h) above 5000 nM. As for “Ac-C(Fluo)VQRKAIHELIQVx^13AELSPAAKT-NH2 ({Ac-C(fluorescein)}-VQRKAIHELIQV[Nle]AELSPAAKT-NH2) [IFNG-HF-6]”, the “Affinity for IFN-gamma” value in experiment [2] is “unexpectedly high affinity”.

Values taken from patent US9475839B2, “Peptide-based inhibitor of interleukin-10 or interferon-gamma signaling” (THE UNITED STATES OF AMERICA, AS REPRESENTED BY THE …, priority 2010, dated 2016).
